Results on 26 molecules are retold here after patent US6987114B1, “Antiviral pyrimidinedione derivatives and process for the preparation thereof” (Samjin Pharmaceutical Co., Ltd, priority 1999, dated 2006).

Each structure is given as a SMILES string. ≈ marks a conversion by molar mass, not a printed value. Like-named read-outs stand apart in the source and are kept apart here.

For one data set, the system named is HIV. Kind of data set: microbe, parasite or virus in culture. Type of data set: cell-based. The method in brief: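 MT-4 cells (2.5×10^5 cells/ml) infected with 1000 CCID50 HIV, added at once to compound dilutions, incubated 4 or 5 days at 37° C. Protection from virus-induced cytopathic effect read by MTT; cytotoxicity from MTT viability of mock-infected cells in parallel.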

The test system of a further data set is mock-infected MT-4 cells. The experiment in a line: Cytotoxicity based on viability of mock-infected host cells (MTT method). Particulars: mock-infected MT-4 cells, MTT method, 4 or 5 days at 37° C. Type of data set: cell-based. The method in brief:
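Mock-infected MT-4 cells at 2.5×10^5 cells/ml were exposed to various concentrations of test compound, run in parallel with HIV-infected (1000 CCID50) cultures. After 4 or 5 days at 37° C., host-cell viability was read by MTT.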

[1] abbreviates: Human immunodeficiency virus 1, MT4, read-out: ED50.
Setting [2] is: Human immunodeficiency virus 1, MT4, HIV-infected MT-4 cells, MTT method, 4 or 5 days at 37° C., read-out: ED50 (the source's name).

The molecule `Cc1cc(C)cc(Oc2c(C(C)C)c(=O)[nH]c(=O)n2Cc2cc(Br)cc(Br)c2)c1` [Example 88, 1-(3,5-Dibromobenzyl)-5-isopropyl-6-(3,5-dimethylphenoxy)-2,4-pyrimidinedione] returned a melting point of 244 to 246 °C. The EC50 in the data set on HIV (setting [1]) turned out to be 0.42 µg/mL (≈ 0.804 µM). Besides, the CD50 in the data set on mock-infected MT-4 cells is over 100.00 µg/mL.

`CCc1c(C(=O)c2cc(C)cc(C)c2)n(Cc2cc(Br)cc(Br)c2)c(=O)[nH]c1=O` [Example 89, 1-(3,5-Dibromobenzyl)-5-ethyl-6-(3,5-dimethylbenzoyl)-2,4-pyrimidinedione]: the melting point was in the range of 234 to 236 °C. Further, the EC50 in the data set with HIV (setting [1]) turned out to be 0.09 µg/mL (≈ 0.173 µM). For the same molecule, the CD50 in the data set on mock-infected MT-4 cells is 8.75 µg/mL.

In the case of `Cc1cc(C)cc(C(=O)c2c(C(C)C)c(=O)[nH]c(=O)n2Cc2cc(Br)cc(Br)c2)c1` [Example 90, 1-(3,5-Dibromobenzyl)-5-isopropyl-6-(3,5-dimethylbenzoyl)-2,4-pyrimidinedione], the melting point was 223 to 225 °C. Besides, the EC50 with HIV (setting [1]) was found to be 0.12 µg/mL (≈ 0.225 µM). The molecule also returned a CD50 with mock-infected MT-4 cells of 8.90 µg/mL.

For `CCc1c(Sc2cc(C)cc(C)c2)n(Cc2c3ccccc3cc3ccccc23)c(=O)[nH]c1=O` [Example 97, 1-(Anthracen-9-ylmethyl)-5-ethyl-6-(3,5-dimethylphenyl)thio-2,4-pyrimidinedione], the melting point lay in the range of 219 to 220 °C. Moreover, the EC50 in the data set on HIV (setting [1]) is over 0.59 µg/mL. The molecule also yielded a CD50 with mock-infected MT-4 cells of 0.59 µg/mL.

Molecule `Cc1cc(C)cc(Sc2c(C(C)C)c(=O)[nH]c(=O)n2Cc2c3ccccc3cc3ccccc23)c1` [Example 98, 1-(Anthracen-9-ylmethyl)-5-isopropyl-6-(3,5-dimethylphenyl)thio-2,4-pyrimidinedione] showed a melting point of 129 to 131 °C. Further, the EC50 in the data set with HIV (setting [1]) is over 1.75 µg/mL. Moreover, in the data set with mock-infected MT-4 cells, the CD50 is 1.75 µg/mL.

As for `CCc1c(Oc2cc(C)cc(C)c2)n(Cc2c3ccccc3cc3ccccc23)c(=O)[nH]c1=O` [Example 99, 1-(Anthracen-9-ylmethyl)-5-ethyl-6-(3,5-dimethyl-phenoxy)-2,4-pyrimidinedione], the melting point lay in the range of 243 to 245 °C. In addition, the EC50 in the data set on HIV (setting [1]) was over 4.12 µg/mL. In the data set with mock-infected MT-4 cells, this molecule displayed a CD50 of 4.12 µg/mL.

In turn, `Cc1cc(C)cc(Oc2c(C(C)C)c(=O)[nH]c(=O)n2Cc2c3ccccc3cc3ccccc23)c1` [Example 100, 1-(Anthracen-9-ylmethyl)-5-isopropyl-6-(3,5-dimethyl-phenoxy)-2,4-pyrimidinedione] returned a melting point of 224 to 226 °C. Further, in the data set on HIV (setting [1]), the EC50 was over 2.02 µg/mL. The same molecule had a CD50 in the data set with mock-infected MT-4 cells of 2.02 µg/mL.

The molecule `CCc1c(C(=O)c2cc(C)cc(C)c2)n(Cc2c3ccccc3cc3ccccc23)c(=O)[nH]c1=O` [Example 101, 1-(Anthracen-9-ylmethyl)-5-ethyl-6-(3,5-dimethyl-benzoyl)-2,4-pyrimidinedione] came in with a melting point of 270 to 272 °C. Further, in the data set with HIV (setting [1]), the EC50 was over 0.94 µg/mL. The CD50 in the data set with mock-infected MT-4 cells stood at 0.94 µg/mL.

Molecule `Cc1cc(C)cc(C(=O)c2c(C(C)C)c(=O)[nH]c(=O)n2Cc2c3ccccc3cc3ccccc23)c1` [Example 102, 1-(Anthracen-9-ylmethyl)-5-isopropyl-6-(3,5-dimethyl-benzoyl)-2,4-pyrimidinedione] returned a melting point of 273 to 275 °C. For the same molecule, the EC50 in the data set with HIV (setting [1]) was over 4.44 µg/mL. The molecule further registered a CD50 in the data set with mock-infected MT-4 cells of 4.44 µg/mL.

For `CCc1c(Sc2cc(C)cc(C)c2)n(Cc2ccc3c(c2)C(=O)c2ccccc2C3=O)c(=O)[nH]c1=O` [Example 103, 1-(Anthraquinon-2-ylmethyl)-5-ethyl-6-(3,5-dimethyl-phenyl)thio-2,4-pyrimidinedione], the melting point was in the range of 195 to 197 °C. In addition, the EC50 with HIV (setting [2]) was over 85.2 µg/mL. The same molecule yielded a CD50 in the data set with mock-infected MT-4 cells of 85.19 µg/mL.

`Cc1cc(C)cc(Sc2c(C(C)C)c(=O)[nH]c(=O)n2Cc2ccc3c(c2)C(=O)c2ccccc2C3=O)c1` [Example 104, 1-(Anthraquinon-2-ylmethyl)-5-isopropyl-6-(3,5-dimethyl-phenyl)thio-2,4-pyrimidinedione] had a melting point of 120 to 122 °C. In the data set on HIV (setting [2]), the EC50 was over 100 µg/mL. The molecule also showed a CD50 with mock-infected MT-4 cells of over 100.00 µg/mL.

`CCc1c(Oc2cc(C)cc(C)c2)n(Cc2ccc3c(c2)C(=O)c2ccccc2C3=O)c(=O)[nH]c1=O` [Example 105, 1-(Anthraquinon-2-ylmethyl)-5-ethyl-6-(3,5-dimethylphenoxy)-2,4-pyrimidinedione] returned a melting point of 233 to 235 °C. In addition, in the data set on HIV (setting [2]), the EC50 was found to be 0.52 µg/mL (≈ 1.08 µM). This molecule also yielded a CD50 in the data set with mock-infected MT-4 cells of 5.30 µg/mL.

Take `Cc1cc(C)cc(Oc2c(C(C)C)c(=O)[nH]c(=O)n2Cc2ccc3c(c2)C(=O)c2ccccc2C3=O)c1` [Example 106, 1-(Anthraquinon-2-ylmethyl)-5-isopropyl-6-(3,5-dimethylphenoxy)-2,4-pyrimidinedione]: the melting point was in the range of 246 to 248 °C. In addition, the EC50 in the data set on HIV (setting [2]) came to 0.49 µg/mL (≈ 0.991 µM). Besides, the CD50 with mock-infected MT-4 cells amounted to 9.49 µg/mL.

`CCc1c(C(=O)c2cc(C)cc(C)c2)n(Cc2ccc3c(c2)C(=O)c2ccccc2C3=O)c(=O)[nH]c1=O` [Example 107, 1-(Anthraquinon-2-ylmethyl)-5-ethyl-6-(3,5-dimethylbenzoyl)-2,4-pyrimidinedione]: the melting point was 143 to 146 °C. Further, in the data set with HIV (setting [2]), the EC50 was 0.026 µg/mL (≈ 0.0528 µM). Besides, the CD50 with mock-infected MT-4 cells came to 2.38 µg/mL.

`Cc1cc(C)cc(C(=O)c2c(C(C)C)c(=O)[nH]c(=O)n2Cc2ccc3c(c2)C(=O)c2ccccc2C3=O)c1` [Example 108, 1-(Anthraquinon-2-ylmethyl)-5-isopropyl-6-(3,5-dimethylbenzoyl)-2,4-pyrimidinedione] came in with a melting point of 156 to 158 °C. Also, the EC50 with HIV (setting [2]) is 0.017 µg/mL (≈ 0.0336 µM). Besides, the CD50 in the data set on mock-infected MT-4 cells came out at 14.41 µg/mL.

The molecule `CCc1c(Sc2cc(C)cc(C)c2)n(Cc2ccccn2)c(=O)[nH]c1=O` [Example 109, 1-(Pyridin-2-ylmethyl)-5-ethyl-6-(3,5-dimethylphenyl)thio-2,4-pyrimidinedione] registered a melting point of 217 to 219 °C. Also, in the data set with HIV (setting [2]), the EC50 was 0.015 µg/mL (≈ 0.0408 µM). The molecule further yielded a CD50 with mock-infected MT-4 cells of 29.72 µg/mL.

As for `Cc1cc(C)cc(Sc2c(C(C)C)c(=O)[nH]c(=O)n2Cc2ccccn2)c1` [Example 110, 1-(Pyridin-2-ylmethyl)-5-isopropyl-6-(3,5-dimethylphenyl)thio-2,4-pyrimidinedione], the melting point fell in the range of 194 to 196 °C. For the same molecule, the EC50 in the data set on HIV (setting [2]) came to 0.009 µg/mL (≈ 0.0236 µM). Further, in the data set on mock-infected MT-4 cells, the CD50 was 9.61 µg/mL.

The molecule `CCc1c(Oc2cc(C)cc(C)c2)n(Cc2ccccn2)c(=O)[nH]c1=O` [Example 111, 1-(Pyridin-2-ylmethyl)-5-ethyl-6-(3,5-dimethylphenoxy)-2,4-pyrimidinedione] registered a melting point of 215 to 217 °C. Moreover, in the data set with HIV (setting [2]), the EC50 was determined as 0.081 µg/mL (≈ 0.231 µM). This molecule displayed a CD50 in the data set with mock-infected MT-4 cells of over 100.00 µg/mL.

The molecule `Cc1cc(C)cc(Oc2c(C(C)C)c(=O)[nH]c(=O)n2Cc2ccccn2)c1` [Example 112, 1-(Pyridin-2-ylmethyl)-5-isopropyl-6-(3,5-dimethylphenoxy)-2,4-pyrimidinedione] came in with a melting point of 220 to 223 °C. In addition, in the data set with HIV (setting [2]), the EC50 came to 0.029 µg/mL (≈ 0.0794 µM). For the same molecule, in the data set with mock-infected MT-4 cells, the CD50 was over 100.00 µg/mL.

`CCc1c(C(=O)c2cc(C)cc(C)c2)n(Cc2ccccn2)c(=O)[nH]c1=O` [Example 113, 1-(Pyridin-2-ylmethyl)-5-ethyl-6-(3,5-dimethylbenzoyl)-2,4-pyrimidinedione]: the melting point is 153 to 155 °C. Further, in the data set on HIV (setting [2]), the EC50 worked out at 0.0084 µg/mL (≈ 0.0231 µM). Further, the CD50 with mock-infected MT-4 cells came to 32.80 µg/mL.

In the case of `CCc1c(Sc2cc(C)cc(C)c2)n(Cc2cccnc2)c(=O)[nH]c1=O` [Example 115, 1-(Pyridin-3-ylmethyl)-5-ethyl-6-(3,5-dimethylphenyl)thio-2,4-pyrimidinedione], the melting point was in the range of 202 to 205 °C. Also, the EC50 in the data set on HIV (setting [1]) is 0.014 µg/mL (≈ 0.0381 µM). In the data set on mock-infected MT-4 cells, this molecule showed a CD50 of 16.63 µg/mL.

On to `Cc1cc(C)cc(Sc2c(C(C)C)c(=O)[nH]c(=O)n2Cc2cccnc2)c1` [Example 116, 1-(Pyridin-3-ylmethyl)-5-isopropyl-6-(3,5-dimethylphenyl)thio-2,4-pyrimidinedione], for which the melting point was 159 to 161 °C. Also, the EC50 in the data set on HIV (setting [1]) was determined as 0.003 µg/mL (≈ 0.00786 µM). This molecule registered a CD50 in the data set with mock-infected MT-4 cells of 10.09 µg/mL.

In turn, `CCc1c(Oc2cc(C)cc(C)c2)n(Cc2cccnc2)c(=O)[nH]c1=O` [Example 117, 1-(Pyridin-3-ylmethyl)-5-ethyl-6-(3,5-dimethylphenoxy)-2,4-pyrimidinedione] gave a melting point of 230 to 232 °C. In addition, the EC50 in the data set on HIV (setting [1]) worked out at 0.061 µg/mL (≈ 0.174 µM). This molecule registered a CD50 in the data set on mock-infected MT-4 cells of 40.20 µg/mL.

`Cc1cc(C)cc(Oc2c(C(C)C)c(=O)[nH]c(=O)n2Cc2cccnc2)c1` [Example 118, 1-(Pyridin-3-ylmethyl)-5-isopropyl-6-(3,5-dimethylphenoxy)-2,4-pyrimidinedione] had a melting point of 190 to 193 °C. The EC50 with HIV (setting [1]) came out at 0.015 µg/mL (≈ 0.041 µM). The CD50 in the data set with mock-infected MT-4 cells worked out at 33.50 µg/mL.

`CCc1c(C(=O)c2cc(C)cc(C)c2)n(Cc2cccnc2)c(=O)[nH]c1=O` [Example 119, 1-(Pyridin-3-ylmethyl)-5-ethyl-6-(3,5-dimethylbenzoyl)-2,4-pyrimidinedione] displayed a melting point of 170 to 172 °C. In addition, the EC50 in the data set with HIV (setting [1]) was 0.0038 µg/mL (≈ 0.0105 µM). The molecule also showed a CD50 in the data set on mock-infected MT-4 cells of 39.00 µg/mL.

Molecule `Cc1cc(C)cc(C(=O)c2c(C(C)C)c(=O)[nH]c(=O)n2Cc2cccnc2)c1` [Example 120, 1-(Pyridin-3-ylmethyl)-5-isopropyl-6-(3,5-dimethylbenzoyl)-2,4-pyrimidinedione] showed a melting point of 178 to 180 °C. Besides, in the data set with HIV (setting [1]), the EC50 was determined as 0.002 µg/mL (≈ 0.0053 µM). In the data set with mock-infected MT-4 cells, the CD50 was 8.80 µg/mL.
